Values quoted from earlier work, collected in patent publication US6406713B1 (priority 1987, dated 2002).

Columns and labels:
[1] = test system: HTLV-III/LAV virus; settings: HTLV-III/LAV infected cell cultures
[2] = test system: histoplasmosis; settings: mouse, in vivo

Compound	protection of target cells against cytopathic effects of the virus [1]	serum and tissue distributions [2]	toxicity versus free amphotericin B preparations [2]
C[C@@H]1[C@H](O)[C@@H](C)/C=C/C=C/C=C/C=C/C=C/C=C/C=C/[C@H](O[C@@H]2O[C@H](C)[C@@H](O)[C@H](N)[C@@H]2O)C[C@@H]2O[C@](O)(C[C@@H](O)C[C@@H](O)[C@H](O)CC[C@@H](O)C[C@@H](O)CC(=O)O[C@H]1C)C[C@H](O)[C@H]2C(=O)O [amphotericin B]	protected target cells against the cytopathic effects of the virus		
liposomal-amphotericin B		lower serum levels and higher liver and spleen concentrations	less toxic
COC(=O)[C@H]1[C@@H]2C[C@@H](O[C@@H]3O[C@H](C)[C@@H](O)[C@H](N)[C@@H]3O)/C=C/C=C/C=C/C=C/C=C/C=C/C=C/[C@H](C)[C@@H](O)[C@@H](C)[C@H](C)OC(=O)C[C@H](O)C[C@H](O)CC[C@@H](O)[C@H](O)C[C@H](O)C[C@](O)(C[C@@H]1O)O2 [amphotericin B methyl ester]	protected target cells against the cytopathic effects of the virus		
